From patent US8324284B2, “Migrastatin analogs and uses thereof” (Sloan-Kettering Institute for Cancer Research, priority 2003, dated 2012)

Assays:
4T1 tumors = experiment: 4T1 primary tumor growth in mice; assay type: in vivo, mouse; details: 10 mg/kg i.p. daily Day 7-25, final tumor size Day 28
Procedure: Female BALB/c mice (6-8 week old) were purchased from the Jackson Laboratory (Bar Harbor, Me.). All mice were housed at the Weill Medical College of Cornell University Animal Facilities in accordance with the Principles of Animal Care (NIH publication no. 85-23, revised 1985). 4T1 tumor cells (1×10^5) were injected subcutaneously into the abdominal mammary gland area of mice in 0.1 ml of a single-cell suspension in phosphate buffered saline (PBS) on Day 0. The dosage of tumor implantation was empirically determined to give rise to tumor of ˜10 mm in diameter in untreated wild type mice in 21-23 days. On Day 7, when the tumors averaged in size ˜4-5 mm in diameter, migrastatin analogs or control PBS saline were given every day by intraperitoneal injection at 10 mg/kg or 20 mg/kg per mouse until Day 25. On Day 28, the mice were sacrificed. […] Primary tumors were measured using electronic calipers on the day when the mice were sacrificed. […] Numbers of metastatic 4T1 cells in lung were determined by the clonogenic assay.^63 In brief, lungs were removed from each mouse on Day 28, finely minced and digested in 5 ml of enzyme cocktail containing 1×PBS and 1 mg/ml collagenase type IV for 2 hours at 37° C. on a platform rocker. […]
Effect of migrastatin analogs on 4T1 tumor cell growth (See, FIG. 5). […] On Day 28, primary tumors were measured using electronic calipers. […]

[1] = tested on: 4T1 tumor lung metastasis; experiment: 4T1 tumor lung metastasis in syngeneic mice; assay type: in vivo, mouse; details: mean and standard deviation
Procedure: Female BALB/c mice (6-8 week old) were purchased from the Jackson Laboratory (Bar Harbor, Me.). All mice were housed at the Weill Medical College of Cornell University Animal Facilities in accordance with the Principles of Animal Care (NIH publication no. 85-23, revised 1985). 4T1 tumor cells (1×10^5) were injected subcutaneously into the abdominal mammary gland area of mice in 0.1 ml of a single-cell suspension in phosphate buffered saline (PBS) on Day 0. The dosage of tumor implantation was empirically determined to give rise to tumor of ˜10 mm in diameter in untreated wild type mice in 21-23 days. On Day 7, when the tumors averaged in size ˜4-5 mm in diameter, migrastatin analogs or control PBS saline were given every day by intraperitoneal injection at 10 mg/kg or 20 mg/kg per mouse until Day 25. On Day 28, the mice were sacrificed. This regiment of migrastatin analogs was well tolerated with no signs of overt toxicity. Every group included five mice. Primary tumors were measured using electronic calipers on the day when the mice were sacrificed. Tumor size was the square root of the product of two perpendicular diameters. Numbers of metastatic 4T1 cells in lung were determined by the clonogenic assay.^63 In brief, lungs were removed from each mouse on Day 28, finely minced and digested in 5 ml of enzyme cocktail containing 1×PBS and 1 mg/ml collagenase type IV for 2 hours at 37° C. on a platform rocker. After incubation, samples were filtered through 70 uM nylon cell strainers and washed twice with PBS. Resulting cells were suspended and plated serially diluted in 10 cm tissue culture dishes in medium RPMI1640 containing 60 uM thioguanine for clonogenic growth. 6-Thioguanine-resistant tumor cells formed foci after 14 days, at which time they were fixed with methanol and stained with 0.03% methylene blue for counting.
Treatment 4T1 tumor lung metastasis in syngeneic mice with migrastatin analogs (See, FIG. 4). 4T1 tumor cells (10^5) were injected s.c. in the abdominal mammary gland with 0.1 ml of a single-cell suspension. Macroketone or macrolactam at 10 mg/kg or 20 mg/kg was given i.p. on Day 7 when the tumor size was about 5 mm in diameter, and every day until Day 25. On Day 28, the mice were sacrificed. Each group comprised five mice. Lung metastasis was measured by the 6-thiogunine clonogenic assay. The mean and standard deviation are presented. In the control group (daily PBS injection), there were 61300±18900 colonies.

[2] = tested on: 4T1 mouse breast tumor cells; experiment: Wound-healing assay with 4T1 cells; assay type: cell-based; details: with serum, 200 μM, overnight
From the text: In the wound healing assay, standard scratches (i.e., wounds) were made through a confluent 4T1 cell layer. In the absence of serum, cells would not migrate across the empty space created by application of the scratch. Upon addition of serum containing migration-enabling factors, migration of 4T1 cells across the scratch was induced. Exposure to these cells to inventive compounds allowed the evaluation of the cell migration inhibitory activity of these compounds.
Wound-Healing Assay (See FIG. 6). 4T1 mouse breast tumor cells in RPMI-1640 medium containing 10% fetal bovine serum (FBS) were seeded into wells of 24-multiwell plates (Becton-Dickinson). After cells grew to confluence, wounds were made with sterile pipette tips. Cells were washed with Phosphate Buffered Saline (PBS) and refreshed with growth medium containing different concentrations of chemical compounds. After overnight incubation at 37° C., cells were fixed and photographed.

[3] = Metabolic stability in mouse plasma; assay type: in vitro ADME; details: mouse plasma/PBS, 37° C.; for stability (t1/2, mouse plasma), in words: 60 min of incubation, stable = intensity of HPLC signal unchanged
Procedure: Mouse Plasma Stability Studies (Table 5): HPLC conditions: The sample is injected and separated using an Inertsil ODS3 6u 3×150 mm column with a mobile phase of MeCN and water (50% for migrastatin) at a flow of 0.4 mL/min, monitored at 220 nm at 0.02 AUFS (the retention time for migrastatin is ca. 4 min, the identity of this peak was confirmed by mass spectral analysis). Incubation and sample preparation conditions: A solution (ca. 30 mM) of chemical compound (Table 5) in DMSO is prepared. 2 μL of the solution is added to a mixture containing 200 μL of mouse plasma and 800 μL of PBS. The resulting solution is put into a water bath at 37° C., and 100 μL of sample is withdrawn at 10, 20, 30, 45, and 60 min. The precipitate is removed by centrifugation and 20 μL of the supernatant is injected onto the HPLC.

4T1 tumor cells = experiment: Cell proliferation assay (MTT); details: up to 20 μM, 48 h
Procedure: Cell Proliferation Assay: 4×10^4 of 4T1 tumor cells in RPMI-1640 medium containing 10% FBS were seeded into wells of 96-multiwell plates (Becton-Dickinson) in the presence or absence of chemical compounds and then incubated at 37° C. for 48 h. An MTT kit (Cell Proliferation Kit I, Roche) (a colorimetric assay) was used to quantify cell proliferation and viability. The number of living cells, thus the total metabolic activity, directly correlates to the amount of purple formazan crystals formed (monitored by the absorbance).

KYSE-520 cells = experiment: Wound healing (scratch) assay; assay type: cell-based; details: 28 to 30 h, tested 200, 100, 50, 25, 10 μM
Procedure: The wound healing assay was performed based on the method described by Nakae et al. (Nakae et al., J. Antibiotics (2000), 53, 1130-1136). Briefly, adherent cells were grown in a suitable media to confluence (e.g. KYSE-520 cells in RPMI-1640 with 10% FBS). Cells were starved for 24 h in serum free media. A scratch (ca. 0.5 mm) was applied and the cell layer was washed twice with PBS after removal of the media. Fresh, serum free media with the test compound at the desired concentration was added and the cells were incubated for 28 to 30 h at 37° C., 5% CO2. The scratch size was compared to that observed for cells exposed to 100 μM Migrastatin. Test compounds associated with a scratch size equal to or larger than that observed for cells exposed to 100 μM Migrastatin were deemed to have cell migration inhibitory activity at least equal to Migrastatin.

cell migration = experiment: Chamber cell migration assay (preliminary); assay type: cell-based; details: 36 h, tested 200, 100, 50, 25, 10 μM
Procedure: Cells were grown in an appropriate media to 70 to 80% confluence and incubated in serum and growth factor free media for 24 h. Cells were detached by trypsin treatment, collected by centrifugation and resuspended in serum free media to a final concentration of 150,000 cells/mL. 400 μL of the cell suspension were loaded into a fibronectin coated insert for 24 well multidishes. 750 μL fully supplemented media were applied to the compartment under the insert. To both chambers the inhibitor was added at the intended concentration and the plates were incubated for 36 h at 37° C., 5% CO2. […] The resulting CyQuant assay solution was transferred to the cavities of a 96 well microtiter plate and the fluorescence signal was recorded in an appropriate reader. The CyQuant dye forms a highly fluorescent complex with DNA, thus the fluorescence signal is proportional to the number of cells that migrated through the membrane in the presence of the test compound (N^inh). […] The positive control fluorescent reading correlates with the number of cells that migrate through the membrane in the absence of inhibitor (N^+). […] The negative control fluorescent reading correlates with the number of cells that migrate through the membrane through non-directed processes (N^−). The anti-migratory effect of a test compound is determined by the ratio (N^inh−N^−)/(N^+−N^−).

HUVEC = experiment: Tube formation assay; assay type: cell-based, human; details: minimal concentration causing definite disturbance of tube network; 16-18 h; tested 200, 100, 50, 25, 10 μM
Procedure: A protocol was designed based on the instructions from the provider (BD Bioscience, San Jose, Calif.). Briefly, wells of a 48 well culture dish were covert with 150 μL matrigel and the matrigel was gelatinized for 30 min at 37° C. A 80-90% confluent HUVEC (BD Bioscience, San Jose, Calif.) culture was trypsin treated, the detached cells were collected by centrifugation and resuspended in EGM-2 media (BD Bioscience, San Jose, Calif.). Cell concentration was adjusted to 100.000 cells/mL. 400 μL of the cell suspension were filled in the matrigel coated wells, and a solution of the inhibitor was added to the intended final concentration. The plates were incubated at 37° C. with 5% CO2 for 16-18 h. Media was removed, and the matrigel surface was washed twice with 500 μL PBS before cells were labeled with 250 μL […] Calcein AM (Pierce, Rockford, Ill.) in PBS for 30 min at 37° C. After two additional washing steps (500 μL PBS) cells were visualized under an inverted microscope. Fluorescence was excited at 488 nm and recorded at 538 nm. The minimum effect concentration was defined as the minimal inhibitor concentration that caused a definite disturbance of the complexity of the formed tube network.

With `COC1C=CCCCCC(=O)CCC(C)=CC(C)C1O` (stereo not shown) [macroketone (60), Macroketone] the “effect on tumor growth in mice” value (4T1 tumors) was “minor effect on tumor growth”, the “lung metastasis, colonies (6-thioguanine clonogenic assay)” value ([1]; 10 mg/kg i.p. daily Day 7-25, Day 28) was 3875±2525 colonies and the “lung metastasis, colonies (6-thioguanine clonogenic assay)” value ([1]; 20 mg/kg i.p. daily Day 7-25, Day 28) was 650±575 colonies.
With `COC1C=CCCCCC(=O)OCC(C)=CC(C)C1O` (stereo not shown) [macrolactone (48), Macrolactone] the “inhibition of 4T1 cell migration across the scratch” value [2] was “almost completely inhibited cell migration across the scratch”, the “stability (t1/2, mouse plasma)” value [3] was less than 5 min and the “stability (t1/2, mouse plasma), in words” value [3] was “hydrolyzed rapidly”. For the same molecule, the “cytotoxic or anti-proliferative effects on 4T1 cells” value (4T1 tumor cells) was “did not have any cytotoxic or anti-proliferative effects up to 20 μM”.
In the case of `CO[C@H]1/C=C/CC/C=C/C(=O)O[C@H]([C@H](C)C(=O)CCCC2CC(=O)NC(=O)C2)/C(C)=C\[C@@H](C)[C@@H]1O` [migrastatin (1), Migrastatin], the “inhibition of 4T1 cell migration across the scratch” value [2] is reported as “not as great”, the Minimum effect concentration (KYSE-520 cells) is reported as 100 µM and the IC50 (cell migration) is reported as 200 µM. For the same molecule, the “stability (t1/2, mouse plasma), in words” value [3] was “stable^1”, the “stability (t1/2, mouse plasma), in words” value ([3]; listed as migrastatin) was “completely inert toward lactone opening” and the Minimum effect concentration (HUVEC) was 100 µM.
